Key:
[1] = system: Cabbage Looper (Trichoplusia ni) ("CL"); assay: Bioassay on Cabbage Looper (CL), 128-well diet tray assay, percent mortality; assay type: in vivo; details: for CL rating (percent mortality class): Cabbage Looper, 128-well diet tray assay; for pest or weed control at 50 µg/cm2: Trichoplusia ni, read-out: CL
From the text: (§1) Bioassays on Beet Armyworm (Spodoptera exigua) (“BAW”) and Cabbage Looper (Trichoplusia ni) (“CL”)
(§2) BAW has few effective parasites, diseases, or predators to lower its population. BAW infests many weeds, trees, grasses, legumes, and field crops. In various places, it is of economic concern upon asparagus, cotton, corn, soybeans, tobacco, alfalfa, sugar beets, peppers, tomatoes, potatoes, onions, peas, sunflowers, and citrus, among other plants. The Cabbage Looper is a member of the moth family Noctuidae. It is found throughout the world. It is attacks cabbage, cauliflower, broccoli, Brussel sprouts, tomatoes, cucumbers, potatoes, kale, turnips, mustard, peppers, eggplant, watermelons, melons, squash, cantaloupe, peas, beans, collards, lettuce, spinach, celery, parsley, beets, peas, alfalfa, soybeans, and cotton. This species is very destructive to plants due to its voracious consumption of leaves. In the case of cabbage, however, they feed not only on the wrapper leaves, but also may bore into the developing head. The larvae consume three times their weight in plant material daily. The feeding sites are marked by large accumulations of sticky, wet fecal material.
(§3) Consequently, because of the above factors control of these pests is important.
(§4) Certain molecules disclosed in this document were tested against BAW and CEW using procedures described in the following examples. In the reporting of the results, the “BAW & CL Rating Table” was used (See Table Section).
Bioassays on Cabbage Looper in CL
(§5) Trays were covered with a clear self-adhesive cover and held at 25° C., 14:10 light-dark for five to seven days. Percent mortality was recorded for the larvae in each well; activity in the eight wells was then averaged. The results are indicated in the table entitled “Table ABC: Biological Results” (See Table Section).

[2] = system: Beet Armyworm (Spodoptera exigua) ("BAW"); assay: Bioassay on Beet Armyworm (BAW), 128-well diet tray assay, percent mortality; assay type: in vivo; details: for BAW rating (percent mortality class): Beet Armyworm, 128-well diet tray assay
From the text: as §1, §2, §3, §4, §5

Row | Compound | BAW rating (percent mortality class) [2] | pest or weed control at 50 µg/cm2 [1] [%] | other results
1 | Cc1ccc(C(C)C)c(N2C(=O)CS/C2=N\C(=O)NCc2ccc(-c3ncn(-c4ccc(OC(F)(F)C(F)(F)F)cc4)n3)cc2)c1 [F19, (Z)-1-(3-(2-isopropyl-5-methylphenyl)-4-oxothiazolidin-2-ylidene)-3-(4-(1-(4-(perfluoroethoxy)phenyl)-1H-1,2,4-triazol-3-yl)benzyl)urea] | A (50-100) |  | CL rating (percent mortality class) [1]: A (50-100)
2 | Cc1cccc(C)c1N1C(=O)CS/C1=N\C(=O)NCCCCc1ccc(-c2ncn(-c3ccc(OC(F)(F)F)cc3)n2)cc1 [P152, (Z)-1-(3-(2,6-dimethylphenyl)-4-oxothiazolidin-2-ylidene)-3-(4-(4-(1-(4-(trifluoromethoxy)phenyl)-1H-1,2,4-triazol-3-yl)phenyl)butyl)urea] |  | 50 to 100 | 
3 | CC(C)c1ccccc1NC(=S)NC(=O)NC1CC1c1ccc(-c2ncn(-c3ccc(OC(F)(F)F)cc3)n2)cc1 (stereo not drawn) [F22, N-[2-(propan-2-yl)phenyl]-N′-[2-(4-{1-[4-(trifluoromethoxy)phenyl]-1H-1,2,4-triazol-3-yl}phenyl)cyclopropyl]dicarbonimidothioic diamide] | A (50-100) |  | CL rating (percent mortality class) [1]: A (50-100)
4 | Cc1ccc(C(C)C)c(NC(=S)NC(=O)NCc2ccc(-c3ncn(-c4ccc(OC(F)(F)F)cc4)n3)cc2)c1 [F35, N-[5-methyl-2-(propan-2-yl)phenyl]-N′-(4-{1-[4-(trifluoromethoxy)phenyl]-1H-1,2,4-triazol-3-yl}benzyl)dicarbonimidothioic diamide] | A (50-100) |  | 
5 | CCC(CNC(=O)/N=C1\SCC(=O)N1c1ccc(F)cc1C(C)C)c1ccc(-c2ncn(-c3ccc(OC(F)(F)F)cc3)n2)cc1 (stereo not drawn) [P1163, (Z)-1-(3-(4-fluoro-2-isopropylphenyl)-4-oxothiazolidin-2-ylidene)-3-(2-(4-(1-(4-(trifluoromethoxy)phenyl)-1H-1,2,4-triazol-3-yl)phenyl)butyl)urea] |  |  | pest or weed control at 50 µg/cm2 ([2]; Spodoptera exigua, read-out: BAW): 50 to 100%
6 | Cc1ccc(-n2c(C)cs/c2=N\C(=O)NCc2ccc(-c3ncn(-c4ccc(OC(F)(F)F)cc4)n3)cc2)c(C(C)C)c1 [P20, (Z)-1-(3-(2-isopropyl-4-methylphenyl)-4-methylthiazol-2(3H)-ylidene)-3-(4-(1-(4-(trifluoromethoxy)phenyl)-1H-1,2,4-triazol-3-yl)benzyl)urea] |  | 50 to 100 | 
7 | CCc1cccc(C)c1N1C(=O)CS/C1=N\C(=O)NCCCCc1ccc(-c2ncn(-c3ccc(OC(F)(F)F)cc3)n2)cc1 [P153, (Z)-1-(3-(2-ethyl-6-methylphenyl)-4-oxothiazolidin-2-ylidene)-3-(4-(4-(1-(4-(trifluoromethoxy)phenyl)-1H-1,2,4-triazol-3-yl)phenyl)butyl)urea] |  | 50 to 100 | 
8 | Cc1ccccc1N1C(=O)CS/C1=N\C(=O)NCCCCc1cccc(-c2ncn(-c3ccc(OC(F)(F)F)cc3)n2)c1 [P170, (Z)-1-(4-oxo-3-(o-tolyl)thiazolidin-2-ylidene)-3-(4-(3-(1-(4-(trifluoromethoxy)phenyl)-1H-1,2,4-triazol-3-yl)phenyl)butyl)urea] |  | 50 to 100 | 
9 | Cc1ccc(C(C)C)c(N2C(=O)CS/C2=N\C(=O)NCCc2cccc(-c3ncn(-c4ccc(OC(F)(F)F)cc4)n3)c2)c1 [P81, (Z)-1-(3-(2-isopropyl-5-methylphenyl)-4-oxothiazolidin-2-ylidene)-3-(3-(1-(4-(trifluoromethoxy)phenyl)-1H-1,2,4-triazol-3-yl)phenethyl)urea] |  | 50 to 100 | 
10 | Cc1ccc(N2C(=O)CS/C2=N\C(=O)NCCCCc2cccc(-c3ncn(-c4ccc(OC(F)(F)F)cc4)n3)c2)c(C(C)C)c1 [P180, (Z)-1-(3-(2-isopropyl-4-methylphenyl)-4-oxothiazolidin-2-ylidene)-3-(4-(3-(1-(4-(trifluoromethoxy)phenyl)-1H-1,2,4-triazol-3-yl)phenyl)butyl)urea] |  | 50 to 100 | 

From US20140274688A1, “MOLECULES HAVING CERTAIN PESTICIDAL UTILITIES, AND INTERMEDIATES, COMPOSITIONS, AND PROCESSES RELATED THERETO” (DOW AGROSCIENCES LLC, priority 2013, published 2014)
